The nature of test [1]: Example 2.2 glycolipid facilitated chemical precipitation: lead. Particulars: for Pb^2+ maximum removal: precipitation without further treatment, maximum over molar ratios. The protocol: (§1) Nine different structural variants were selected to examine the effect of the headgroup and number and length of the hydrophobic tail(s) on glycolipids as a chemical precipitant (Table 6). These solutions were made in advance and stored at 4° C. for up to one month and brought to room temperature (˜25° C.) before each experiment.
(§2) Each metal (Pb^2+, La^3+, and Mg^2+) was evaluated separately with each of the nine glycolipids. […] The reactions were mixed in the order of nanopure water (≥18 MΩ-cm), glycolipid solution, then metal solution. The metal and glycolipid solutions were continuously stirred as they were aliquoted into the reaction tubes. All experiments were performed in triplicate.
(§3) The reaction tubes were rotated overnight (16 to 24 h) and then three samples were collected from each tube to measure metal removal from solution: (1) no further treatment; (2) an additional filtration step; and (3) an additional centrifugation step. Briefly, for the glycolipid adsorption treatment samples all tubes were vortexed for approximately 5 sec immediately before sampling to ensure that non-adsorbed glycolipid-metal complexes were mixed into the solution column. After mixing, 0.1 ml of the reaction solution was aliquoted into a dilution tube of 2% trace metal grade nitric acid for analysis. This sample measures the loss of metal due to the formation of hydrophobic scums or adsorbed complexes not attributable to the subsequent filtration or centrifugation treatments.
Samples for the filtration treatment were vortexed for 5 sec, then a 0.6 ml aliquot was collected with a 1 ml syringe. A GHP acrodisc disk filter (hydrophilic polypropylene membrane, 0.45 µm pore size, 25 mm disc diameter) from Pall Life Sciences (Port Washington, New York) or PTFE disk filters (hydrophobic polytetrafluoroethylene membrane, 0.45 μm pore size, 25 mm disc diameter) from Fisher Scientific (Waltham, MA) was then placed onto the end of the syringe and approximately 0.1 ml of filtrate was collected into a dilution tube for analysis. The centrifuge sample was collected by centrifuging the remaining reaction solution at 10,000 RCF for 15 min. Approximately 0.1 ml of the supernatant was aliquoted into a dilution tube for analysis. Following collection, the metal content in all samples was analyzed at the Arizona Laboratory for Emerging Contaminants (ALEC) at the University of Arizona using inductively coupled plasma mass spectrometry.
(§4) R was determined by comparing the solution metal concentration of the treatment sample (Cnt for the glycolipid with no further treatment sample, Cf for the glycolipid and filtration sample, and Cc for the glycolipid and centrifugation sample) to the solution metal concentration of a glycolipid-free control (Ci) that underwent the same handling and processing steps. The equations for these calculations are shown below: […]

A short description of test [2]: Example 2.2 glycolipid facilitated chemical precipitation: magnesium. The protocol: Surfactants: Each of the solutions were made by dissolving a single glycolipid (GlycoSurf Inc., Salt Lake City, >95% purity) in nanopure water (≥18 MΩ-cm) then adjusting the pH to 6.90±0.05 with HNO3 and NaOH. Nine different structural variants were selected to examine the effect of the headgroup and number and length of the hydrophobic tail(s) on glycolipids as a chemical precipitant (Table 6). These solutions were made in advance and stored at 4° C. for up to one month and brought to room temperature (˜25° C.) before each experiment.
Metals: Three metals were tested for binding with the glycolipids: lead as […] (Fisher Scientific, Waltham, MA, 99% purity), lanthanum as La(NO3)3 6(H2O) (Sigma-Aldrich, St. Louis, MO, 99.99% purity), and magnesium as Mg(NO3)2 6(H2O) (Sigma-Aldrich, St. Louis, MO, 99% purity. Metal solutions (5 mM) were made using nanopure water (≥18 MΩ-cm) and were not pH balanced.
Each metal (Pb^2+, La^3+, and Mg^2+) was evaluated separately with each of the nine glycolipids. […]
(§5) Samples for the filtration treatment were vortexed for 5 sec, then a 0.6 ml aliquot was collected with a 1 ml syringe. […] Following collection, the metal content in all samples was analyzed at the Arizona Laboratory for Emerging Contaminants (ALEC) at the University of Arizona using inductively coupled plasma mass spectrometry.
as §4, with “Calculations: The efficiency of metal removal (R) was determined for each of the three treatments: Ra for the active mixing/adsorption treatment, Rf for the glycolipid and filtration treatment, and Rc for the glycolipid and centrifugation treatment. R” for “R”, “steps.” for “steps. The equations for these calculations are shown below:”

The nature of test [3]: Example 2.2 glycolipid facilitated chemical precipitation: lanthanum. The protocol: as §1, §2
as §3, with “This sample measures the loss of metal due to the formation of hydrophobic scums or adsorbed complexes not attributable to the subsequent filtration or centrifugation treatments.” left out
as §5
R was determined by comparing the solution metal concentration of the treatment sample (Cnt for the glycolipid with no further treatment sample, Cf for the glycolipid and filtration sample, and Cc for the glycolipid and centrifugation sample) to the solution metal concentration of a glycolipid-free control (Ci) that underwent the same handling and processing steps. […]

A short description of test [4]: Ion flotation of uranium from Monument Valley groundwater with rhamnolipid collectors. Particulars: pH 6.5. The text has this: Groundwater Collection and Analysis: The Monument Valley site is in Cane Valley, AZ, which is in northeastern Arizona. Groundwater was collected from monitoring well 662, which is down gradient of the source zone within the boundaries of the uranium groundwater plume. Samples were collected using dedicated bladder pumps and a QED Micropurge Controller. Groundwater was collected into a 50 L LDPE carboy (Thermo Scientific Nalgene) after the groundwater's pH and dissolved oxygen levels from the pump stabilized. The solution was stored as received, on the lab bench at ambient temperature until use.
For cation and anion analysis, groundwater was filtered ([…]) then diluted with 2% trace metals grade nitric acid (Fisher Scientific, Waltham, MA) in metal-free polypropylene 15 mL centrifuge tubes (VWR, Radnor, PA). Cations were analyzed using an Elan DRC-II inductively coupled plasma mass spectrometer (ICP-MS). Anions (F^−1, Cl^−1, Br^−1, NO2^−1, NO3^−1, […], and SO4^−2) were analyzed by using a Thermo Scientific Dionex ICS-6000 high-performance ion chromatography system. Data generated in this geochemical analysis were used to model uranium speciation using Visual MINTEQ 3.1. Only major solution constituents—those greater than 10 μg L^−1 for metals or 5 μmol L^−1 for anions—were included in the experiment, and carbonates were excluded because they are stripped from solution when nitrogen is sparged in the flotation process.
Chemicals: Both biosynthetic and synthetic monorhamnolipid collectors were tested for flotation efficiency. Biosynthetic monorhamnolipid tail lengths ‘m’ and ‘n’ range from 4 to 12 due to natural congener variation. Synthetic monorhamnolipids (Rha-C10-C10, Rha-C12-C12, or Rha-C14-C14) were synthesized with equal length tails where ‘m’=‘n’=6-14. The production and purification of biosynthetic monorhamnolipids (bio-mRL) from Pseudomonas aeruginosa ATCC 9027 has been previously described by Hogan et al., J. Hazard. Mater. 2017, 340, pp. 171-178. This organism exclusively produces monorhamnolipids—rhamnolipids with a single rhamnose sugar in the hydrophilic moiety of the molecule—as a congener mixture with varying hydrophobic tail lengths, in which the rhamnosyl-β-hydroxydecanoyl-β-hydroxydecanoate (C10-C10) dominates at 75-85 wt %. A molecular weight of 504 g mol^−1 (based on the C10-C10 structure) was used to estimate the bio-mRL concentration. Synthetic monorhamnolipids with decyl (Rha-C10-C10), dodecyl (Rha-C12-C12), and tetradecyl (Rha-C14-C14) hydrophobic moieties were prepared for comparative experiment. The molecular weights of the synthetic monorhamnolipids are 504.7, 560.8, and 616.9, respectively. All solutions were made using nanopure water (≥18 MΩ-cm). pH was adjusted with HNO3 and NaOH. […]

Where [5] appears, read: precipitation without further treatment, 5:1 ratio.
Setting [6] is: precipitation followed by centrifugation, molar ratio not stated / over ratios.
Setting [7] is: precipitation without further treatment, molar ratio not stated.

For the compound `CCCCCCCC(CC(=O)O)OC1O[C@H](CO)[C@H](O)[C@H](O)[C@H]1O` (some centres unmarked) [Gal-C10], the “Pb^2+ removal” value in test [1] (precipitation followed by filtration, 2:1 molar ratio) turned out to be 95.5%. For the same compound, in test [1], the “Pb^2+ maximum removal” value is 38%.

As to `CCCCCCCCCCCC(CC(=O)O)OC1O[C@H](CO)[C@H](O)[C@H](O)[C@H]1O` (some centres unmarked) [Gal-C14], the “Mg^2+ removal” value in test [2] (setting [5]) is 11.6%. The “Pb^2+ maximum removal” value in test [1] is recorded as 1.5%. Also, in test [3] (setting [5]), the “La^3+ removal” value stood at 57.9%.

Consider `CCCCCCCC(CC(=O)O)OC1OC[C@@H](O)[C@H](O)[C@H]1O` (some centres unmarked) [Xyl-C10], for which the “Mg^2+ removal” value in test [2] (setting [6]) is given as not above 30%. The “Pb^2+ removal” value in test [1] (setting [6]) was not above 30%. Moreover, the “Pb^2+ maximum removal” value in test [1] is given as “approximately 30%”. In test [3] (setting [6]), the “La^3+ removal” value was not above 30%.

Take `CCCCCCCCCCCC(CC(=O)O)OC(=O)CC(CCCCCCCCCCC)OC1OC[C@@H](O)[C@H](O)[C@H]1O` (some centres unmarked) [Xyl-C14-C14]: the “Mg^2+ removal” value in test [2] (setting [7]) is listed as 17.1%. For the same compound, the “Pb^2+ maximum removal” value in test [1] is “approximately 30%”.

For the compound `CCCCCCCCCCCC(CC(=O)O)OC1OC[C@@H](O)[C@H](O)[C@H]1O` (some centres unmarked) [Xyl-C14], the “Pb^2+ maximum removal” value in test [1] is reported as less than 7%. The “La^3+ removal” value in test [3] (setting [7]) is 42.6%.

With `CCCCCCCC(CC(=O)O)OC(=O)CC(CCCCCCC)O[C@@H]1OC(C)[C@H](O)C(O)C1O[C@@H]1OC(C)[C@H](O)C(O)C1O` (some centres unmarked) [dirhamnolipid], the uranium removal percentage result in test [4] was “about 75%”.

Values taken from US20240182513A1, “SEPARATION OF METAL IONS FROM A SAMPLE USING GLYCOLIPIDS” (ARIZONA BOARD OF REGENTS ON BEHALF OF THE UNIVERSITY OF …, priority 2021, published 2024).
